From patent publication US9828374B2, “Substituted pyrazino[2,2-a]isoquinoline derivatives” (Hoffmann-La Roche Inc., priority 2014, dated 2017)

Legend:
mouse TAAR1 = mouse TAAR1 (Mus musculus (Mouse), UniProt Q923Y8); assay: Radioligand binding assay on mouse TAAR1; conditions: mouse TAAR1, HEK-293 membranes; first value of the mouse/rat pair
Protocol: (§1) Construction of TAAR Expression Plasmids and Stably Transfected Cell Lines
(§2) For the construction of expression plasmids the coding sequences of human, rat and mouse TAAR 1 were amplified from genomic DNA essentially as described by Lindemann et al..
(§3) The Expand High Fidelity PCR System (Roche Diagnostics) was used with 1.5 mM Mg^2+ and purified PCR products were cloned into pCR2.1-TOPO cloning vector (Invitrogen) following the instructions of the manufacturer. PCR products were subcloned into the pIRESneo2 vector (BD Clontech, Palo Alto, Calif.), and expression vectors were sequence verified before introduction in cell lines.
(§4) HEK293 cells (ATCC # CRL-1573) were cultured essentially as described by Lindemann et al. (2005). For the generation of stably transfected cell lines HEK293 cells were transfected with the pIRESneo2 expression plasmids containing the TAAR coding sequences (described above) with Lipofectamine 2000 (Invitrogen) according to the instructions of the manufacturer, and 24 hrs post transfection the culture medium was supplemented with 1 mg/ml G418 (Sigma, Buchs, Switzerland). After a culture period of about 10 d clones were isolated, expanded and tested for responsiveness to trace amines (all compounds purchased from Sigma) with the cAMP Biotrak Enzyme immunoassay (EIA) System (Amersham) following the non-acetylation EIA procedure provided by the manufacturer.
Radioligand Binding Assay on Mouse TAAR1
(§5) Membrane Preparation and Radioligand Binding.
(§6) HEK-293 cells stably expressing mouse TAAR1 were maintained at 37° C. and 5% CO2 in DMEM high glucose medium, containing fetal calf serum (10%, heat inactivated for 30 min at 56° C.), penicillin/streptomycin (1%), and 375 μg/ml geneticin (Gibco). Cells were released from culture flasks using trypsin/EDTA, harvested, washed twice with ice-cold PBS (without Ca^2+ and Mg^2+), pelleted at 1,000 rpm for 5 min at 4° C., frozen and stored at −80° C. Frozen pellets were suspended in 20 ml HEPES-NaOH (20 mM, pH 7.4) containing 10 mM EDTA and homogenized with a Polytron (PT 6000, Kinematica) at 14,000 rpm for 20 s. The homogenate was centrifuged at 48,000×g for 30 min at 4° C. Subsequently, the supernatant was removed and discarded, and the pellet resuspended in 20 ml HEPES-NaOH (20 mM, pH 7.4) containing 0.1 mM EDTA using the Polytron (20 s at 14,000 rpm). This procedure was repeated and the final pellet resuspended in HEPES-NaOH containing 0.1 mM EDTA and homogenized using the Polytron. Typically, aliquots of 2 ml membrane portions were stored at −80° C. With each new membrane batch the dissociation constant (Kd) was determined via a saturation curve. […] Nonspecific binding was defined as the amount of ^3[H]-(S)-4-[(ethyl-phenyl-amino)-methyl]-4,5-dihydro-oxazol-2-ylamine bound in the presence of 10 μM unlabeled ligand. All compounds were tested at a broad range of concentrations (10 pM to 10 μM) in duplicates. […] The 96 deep well plates were incubated for 1 hr at 4° C. Incubations were terminated by rapid filtration through Unifilter-96 plates (Packard Instrument Company) and glass filters GF/C (Perkin Elmer) presoaked for 1 hr in polyethylenimine (0.3%) and washed 3 times with 1 ml of cold binding buffer. After addition of 45 μl of Microscint 40 (PerkinElmer) the Unifilter-96 plate was sealed and after 1 hr the radioactivity counted using a TopCount Microplate Scintillation Counter (Packard Instrument Company).

rat TAAR1 = rat TAAR1 (Rattus norvegicus (Rat), UniProt Q923Y9); assay: Radioligand binding assay on rat TAAR1; conditions: rat TAAR1, HEK-293 membranes; second value of the mouse/rat pair
Protocol: as §1, §2, §3, §4
Radioligand Binding Assay on Rat TAAR1
as §5
as §6, with “rat” for “mouse”, “[H]-(S)-4-[(ethyl-phenyl-amino)-methyl]-4,5-dihydro-oxazol-2-ylamine” for “^3[H]-(S)-4-[(ethyl-phenyl-amino)-methyl]-4,5-dihydro-oxazol-2-ylamine”, “[…]” for “pM”

Sequence of mouse TAAR1 (Q923Y8 whole entry): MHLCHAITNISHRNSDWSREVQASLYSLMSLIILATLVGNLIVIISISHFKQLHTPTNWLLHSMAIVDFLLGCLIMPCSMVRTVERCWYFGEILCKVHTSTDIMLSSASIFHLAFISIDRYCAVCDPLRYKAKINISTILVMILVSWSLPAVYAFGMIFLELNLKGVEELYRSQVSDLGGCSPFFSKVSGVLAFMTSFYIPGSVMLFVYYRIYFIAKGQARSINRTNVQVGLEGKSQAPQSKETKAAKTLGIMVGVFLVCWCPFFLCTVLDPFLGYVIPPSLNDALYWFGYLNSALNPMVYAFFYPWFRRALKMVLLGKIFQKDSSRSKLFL
Sequence of rat TAAR1 (Q923Y9 whole entry): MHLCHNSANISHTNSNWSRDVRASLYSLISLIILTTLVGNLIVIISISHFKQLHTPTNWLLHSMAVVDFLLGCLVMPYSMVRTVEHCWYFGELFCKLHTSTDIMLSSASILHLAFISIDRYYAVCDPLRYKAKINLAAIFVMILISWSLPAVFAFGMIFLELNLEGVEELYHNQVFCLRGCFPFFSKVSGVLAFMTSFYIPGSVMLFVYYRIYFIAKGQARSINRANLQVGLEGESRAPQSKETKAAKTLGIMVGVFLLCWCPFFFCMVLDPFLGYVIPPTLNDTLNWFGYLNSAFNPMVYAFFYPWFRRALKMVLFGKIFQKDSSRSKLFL

Row | SMILES | Ki (mouse TAAR1) [µM] | Ki (rat TAAR1) [µM]
1 | Fc1c(Nc2ncc(C3CC3)cn2)ccc2c1CCN1CCNC[C@@H]21 [Example 33, (11bR)-N-(5-cyclopropylpyrimidin-2-yl)-8-fluoro-2,3,4,6,7,11b-hexahydro-1H-pyrazino[2,1-a]isoquinolin-9-amine] | 0.0677 | 0.105
2 | O=C(Nc1ccc(Cl)cc1)c1ccc2c(c1)CCN1CCNC[C@@H]21 [Example 44, (11bR)-N-(4-chlorophenyl)-2,3,4,6,7,11b-hexahydro-1H-pyrazino[2,1-a]isoquinoline-9-carboxamide] | 0.0161 | 0.274
3 | CN(C)c1cc(Nc2ccc3c(c2)CCN2CCNC[C@@H]32)nc(C(F)(F)F)n1 [Example 19, N4-[(11bR)-2,3,4,6,7,11b-hexahydro-1H-pyrazino[2,1-a]isoquinolin-9-yl]-N6,N6-dimethyl-2-(trifluoromethyl)pyrimidine-4,6-diamine] | 0.0231 | 0.0076
4 | FC(F)(F)COc1cnc(Nc2ccc3c(c2)CCN2CCNC[C@@H]32)nc1 [Example 13, (R)-N-(5-(2,2,2-trifluoroethoxy)pyrimidin-2-yl)-2,3,4,6,7,11b-hexahydro-1H-pyrazino[2,1-a]isoquinolin-9-amine] | 0.0078 | 0.0119
5 | FC(F)(F)c1nccc(Nc2ccc3c(c2)CCN2CCNC[C@H]32)n1 [Example 11, (11bS)-N-[2-(trifluoromethyl)pyrimidin-4-yl]-2,3,4,6,7,11b-hexahydro-1H-pyrazino[2,1-a]isoquinolin-9-amine] | 1.18 | 0.904
6 | O=C(Nc1ccc2c(c1)CCN1CCNC[C@H]21)c1cnc(C(F)(F)F)nc1 [Example 10, N-[(11bS)-2,3,4,6,7,11b-hexahydro-1H-pyrazino[2,1-a]isoquinolin-9-yl]-2-(trifluoromethyl)pyrimidine-5-carboxamide] | 0.189 | 0.191
7 | Fc1cc2c(cc1Nc1ncc(C(F)(F)F)cn1)CCN1CCNC[C@@H]21 [Example 17, (11bR)-10-fluoro-N-[5-(trifluoromethyl)pyrimidin-2-yl]-2,3,4,6,7,11b-hexahydro-1H-pyrazino[2,1-a]isoquinolin-9-amine] | 0.261 | 0.623
8 | Cc1cc(Nc2ccc3c(c2)CCN2CCNC[C@@H]32)nc(C(F)(F)F)n1 [Example 20, (11bR)-N-[6-methyl-2-(trifluoromethyl)pyrimidin-4-yl]-2,3,4,6,7,11b-hexahydro-1H-pyrazino[2,1-a]isoquinolin-9-amine] | 0.0364 | 0.0112
9 | COc1ccc(NC(=O)c2ccc3c(c2)CCN2CCNC[C@@H]32)cn1 [Example 45, (11bR)-N-(6-methoxy-3-pyridyl)-2,3,4,6,7,11b-hexahydro-1H-pyrazino[2,1-a]isoquinoline-9-carboxamide] | 0.299 | > 1.5
10 | O=C(Nc1ccc(C(F)(F)F)cc1)Nc1ccc2c(c1)CCN1CCNC[C@@H]21 [Example 35, (R)-1-(2,3,4,6,7,11b-hexahydro-1H-pyrazino[2,1-a]isoquinolin-9-yl)-3-(4-(trifluoromethyl)phenyl)urea] | 0.0025 | 0.0012
11 | FC(F)(F)c1cnc(Nc2ccc3c(c2)CCN2CCNC[C@@H]32)cn1 [Example 7, (11bR)-N-[5-(trifluoromethyl)pyrazin-2-yl]-2,3,4,6,7,11b-hexahydro-1H-pyrazino[2,1-a]isoquinolin-9-amine] | 0.0329 | 0.0356
12 | O=C(Nc1ccc2c(c1)CCN1CCNC[C@H]21)c1ccnc(C(F)(F)F)c1 [Example 9, N-[(11bS)-2,3,4,6,7,11b-hexahydro-1H-pyrazino[2,1-a]isoquinolin-9-yl]-2-(trifluoromethyl)pyridine-4-carboxamide] | 0.0144 | 0.0142
13 | O=C(Nc1cnc(Cl)nc1)c1ccc2c(c1)CCN1CCNC[C@@H]21 [Example 46, (11bR)-N-(2-chloropyrimidin-5-yl)-2,3,4,6,7,11b-hexahydro-1H-pyrazino[2,1-a]isoquinoline-9-carboxamide] | 0.309 | > 1.5
14 | c1cc2c(cc1Nc1ncc(C3CC3)cn1)CCN1CCNC[C@@H]21 [Example 14, (11bR)-N-(5-cyclopropylpyrimidin-2-yl)-2,3,4,6,7,11b-hexahydro-1H-pyrazino[2,1-a]isoquinolin-9-amine] | 0.0066 | 0.0192
15 | c1cnc(Nc2ccc3c(c2)CCN2CCNC[C@@H]32)nc1 [Example 22, (11bR)-N-pyrimidin-2-yl-2,3,4,6,7,11b-hexahydro-1H-pyrazino[2,1-a]isoquinolin-9-amine] | 0.537 | 3.92
16 | Fc1c(Nc2cc(Cl)nc(C(F)(F)F)n2)ccc2c1CCN1CCNC[C@H]21 [Example 31, (11bS)-N-[6-chloro-2-(trifluoromethyl)pyrimidin-4-yl]-8-fluoro-2,3,4,6,7,11b-hexahydro-1H-pyrazino[2,1-a]isoquinolin-9-amine] | 0.835 | 1.73
17 | FC(F)(F)c1cnc(Nc2ccc3c(c2)CCN2CCNC[C@@H]32)nc1 [Example 6, (11bR)-N-[5-(trifluoromethyl)pyrimidin-2-yl]-2,3,4,6,7,11b-hexahydro-1H-pyrazino[2,1-a]isoquinolin-9-amine] | 0.0374 | 0.0195
18 | Cc1cc(C(=O)Nc2ccc3c(c2)CCN2CCNC[C@@H]32)nc(C(F)(F)F)n1 [Example 38, (R)-N-(2,3,4,6,7,11b-hexahydro-1H-pyrazino[2,1-a]isoquinolin-9-yl)-6-methyl-2-(trifluoromethyl)pyrimidine-4-carboxamide] | 0.222 | 0.157
19 | O=C(Nc1ccc(Cl)nc1)c1ccc2c(c1)CCN1CCNC[C@@H]21 [Example 42, (11bR)-N-(6-chloro-3-pyridyl)-2,3,4,6,7,11b-hexahydro-1H-pyrazino[2,1-a]isoquinoline-9-carboxamide] | 0.0395 | 0.682
20 | Nc1ccc2c(c1)CCN1CCNC[C@@H]21 [Example 47, (11bR)-2,3,4,6,7,11b-hexahydro-1H-pyrazino[2,1-a]isoquinolin-9-amine] | 1.1 | > 1.5
21 | O=C(Nc1ccc2c(c1F)CCN1CCNC[C@@H]21)c1ccnc(C(F)(F)F)c1 [Example 32, N-[(11bR)-8-fluoro-2,3,4,6,7,11b-hexahydro-1H-pyrazino[2,1-a]isoquinolin-9-yl]-2-(trifluoromethyl)pyridine-4-carboxamide] | 0.444 | 7.63
